Calls of active or inactive are those of the source.
How the values were obtained:
[1] = target: T1, Sentrin-specific protease 7 (Homo sapiens, UniProt Q9BQF6); experiment: SENP7 protease inhibitors, SAR follow-up, biochemical, luminescence (AID 504497); type: functional
T1 sequence (Q9BQF6 whole entry): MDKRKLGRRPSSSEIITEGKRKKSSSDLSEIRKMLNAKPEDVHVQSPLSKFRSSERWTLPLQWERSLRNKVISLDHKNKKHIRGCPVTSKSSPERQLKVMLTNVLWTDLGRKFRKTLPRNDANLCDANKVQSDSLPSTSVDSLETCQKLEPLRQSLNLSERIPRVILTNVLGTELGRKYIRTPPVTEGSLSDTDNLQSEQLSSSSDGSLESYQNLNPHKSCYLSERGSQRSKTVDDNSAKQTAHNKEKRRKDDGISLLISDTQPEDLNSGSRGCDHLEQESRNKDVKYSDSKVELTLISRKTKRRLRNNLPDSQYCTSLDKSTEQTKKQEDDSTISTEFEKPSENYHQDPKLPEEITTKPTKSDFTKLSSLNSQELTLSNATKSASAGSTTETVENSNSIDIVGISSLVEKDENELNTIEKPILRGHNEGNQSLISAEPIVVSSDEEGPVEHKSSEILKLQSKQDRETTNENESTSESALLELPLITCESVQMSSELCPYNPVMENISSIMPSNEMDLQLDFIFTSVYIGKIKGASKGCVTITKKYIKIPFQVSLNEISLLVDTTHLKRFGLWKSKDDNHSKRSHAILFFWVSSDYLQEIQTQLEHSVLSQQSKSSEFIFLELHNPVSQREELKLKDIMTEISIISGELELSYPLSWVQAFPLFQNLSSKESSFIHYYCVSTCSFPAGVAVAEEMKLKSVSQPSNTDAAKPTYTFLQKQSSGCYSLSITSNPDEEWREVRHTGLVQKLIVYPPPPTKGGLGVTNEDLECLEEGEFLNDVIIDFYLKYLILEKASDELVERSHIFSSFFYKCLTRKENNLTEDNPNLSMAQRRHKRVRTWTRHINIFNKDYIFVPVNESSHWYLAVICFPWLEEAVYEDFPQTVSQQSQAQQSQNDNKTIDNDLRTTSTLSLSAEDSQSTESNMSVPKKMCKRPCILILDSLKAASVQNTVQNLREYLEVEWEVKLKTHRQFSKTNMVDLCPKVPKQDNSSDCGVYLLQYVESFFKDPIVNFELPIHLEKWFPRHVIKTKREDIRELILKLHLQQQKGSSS

[2] = target: Tyrosyl-DNA phosphodiesterase 2 (Homo sapiens, UniProt O95551); experiment: human TDP2 enzyme inhibitors, dose response, biochemical, epi absorbance, IC50 (AID 743297)
Tyrosyl-DNA phosphodiesterase 2, sequence (O95551 whole entry): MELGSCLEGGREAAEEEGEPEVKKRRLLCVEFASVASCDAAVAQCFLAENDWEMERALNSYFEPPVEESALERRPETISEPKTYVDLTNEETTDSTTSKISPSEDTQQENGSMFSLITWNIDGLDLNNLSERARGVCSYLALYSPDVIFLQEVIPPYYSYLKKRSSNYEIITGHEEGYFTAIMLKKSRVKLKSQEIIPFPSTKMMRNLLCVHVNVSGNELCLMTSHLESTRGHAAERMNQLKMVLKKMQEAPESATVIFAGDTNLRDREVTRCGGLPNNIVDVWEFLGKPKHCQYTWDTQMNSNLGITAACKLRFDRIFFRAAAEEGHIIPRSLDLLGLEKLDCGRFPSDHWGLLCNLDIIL

Caspase-3 = target: T2, Caspase-3 (Homo sapiens, UniProt P42574); experiment: SAR Analysis of small molecule inhibitors of Sentrin-specific proteases (SENPs) using a Caspase-3 Selectivity assay. [Related pubchem assays (depositor defined):AID2540, AID2599, AID434973, AID489001]; type: functional
T2 sequence (P42574 whole entry): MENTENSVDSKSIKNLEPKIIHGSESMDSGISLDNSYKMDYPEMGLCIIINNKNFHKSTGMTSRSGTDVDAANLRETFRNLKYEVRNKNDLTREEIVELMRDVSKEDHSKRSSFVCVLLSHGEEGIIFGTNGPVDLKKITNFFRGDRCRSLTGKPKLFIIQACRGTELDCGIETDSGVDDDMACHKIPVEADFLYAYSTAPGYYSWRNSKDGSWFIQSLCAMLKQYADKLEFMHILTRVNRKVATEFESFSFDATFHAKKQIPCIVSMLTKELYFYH

[3] = target: T3, Small ubiquitin-related modifier 1 (Homo sapiens, UniProt P63165); experiment: inhibitors of SUMO1 peptide binding, dose response, biochemical, fluorescence polarization, uHTS hits (AID 624382); type: functional; conditions: read-out: IC50_Mean
T3 sequence (P63165 whole entry): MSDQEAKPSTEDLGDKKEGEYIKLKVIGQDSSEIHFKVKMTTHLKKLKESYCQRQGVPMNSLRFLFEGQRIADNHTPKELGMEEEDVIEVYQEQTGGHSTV

[4] = target: Small ubiquitin-related modifier 2 (Homo sapiens, UniProt P61956); experiment: inhibitors of SUMO2 protein-protein interaction, dose response, selectivity assay for SUMO1 interaction inhibitor project, biochemical, FRET, human SUMO2, uHTS hits (AID 624384); type: functional; conditions: read-out: IC50_Mean
Small ubiquitin-related modifier 2, sequence (P61956 whole entry): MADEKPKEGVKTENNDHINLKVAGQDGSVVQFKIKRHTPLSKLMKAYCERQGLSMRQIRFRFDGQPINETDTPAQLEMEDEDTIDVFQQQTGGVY

[5] = target: T3, Small ubiquitin-related modifier 1; experiment: inhibitors of SUMO1 partner interactions, dose response, biochemical, FRET (AID 624383); type: functional; conditions: read-out: IC50_Mean
Genome polyprotein = Genome polyprotein (dengue virus type 2, UniProt P29990); experiment: Dengue-2 NS5 methyltransferase inhibitors, primary screen, biochemical, confirmation dose response (AID 588689); type: functional
Genome polyprotein, sequence (P29990 2492-3391 limits assumed): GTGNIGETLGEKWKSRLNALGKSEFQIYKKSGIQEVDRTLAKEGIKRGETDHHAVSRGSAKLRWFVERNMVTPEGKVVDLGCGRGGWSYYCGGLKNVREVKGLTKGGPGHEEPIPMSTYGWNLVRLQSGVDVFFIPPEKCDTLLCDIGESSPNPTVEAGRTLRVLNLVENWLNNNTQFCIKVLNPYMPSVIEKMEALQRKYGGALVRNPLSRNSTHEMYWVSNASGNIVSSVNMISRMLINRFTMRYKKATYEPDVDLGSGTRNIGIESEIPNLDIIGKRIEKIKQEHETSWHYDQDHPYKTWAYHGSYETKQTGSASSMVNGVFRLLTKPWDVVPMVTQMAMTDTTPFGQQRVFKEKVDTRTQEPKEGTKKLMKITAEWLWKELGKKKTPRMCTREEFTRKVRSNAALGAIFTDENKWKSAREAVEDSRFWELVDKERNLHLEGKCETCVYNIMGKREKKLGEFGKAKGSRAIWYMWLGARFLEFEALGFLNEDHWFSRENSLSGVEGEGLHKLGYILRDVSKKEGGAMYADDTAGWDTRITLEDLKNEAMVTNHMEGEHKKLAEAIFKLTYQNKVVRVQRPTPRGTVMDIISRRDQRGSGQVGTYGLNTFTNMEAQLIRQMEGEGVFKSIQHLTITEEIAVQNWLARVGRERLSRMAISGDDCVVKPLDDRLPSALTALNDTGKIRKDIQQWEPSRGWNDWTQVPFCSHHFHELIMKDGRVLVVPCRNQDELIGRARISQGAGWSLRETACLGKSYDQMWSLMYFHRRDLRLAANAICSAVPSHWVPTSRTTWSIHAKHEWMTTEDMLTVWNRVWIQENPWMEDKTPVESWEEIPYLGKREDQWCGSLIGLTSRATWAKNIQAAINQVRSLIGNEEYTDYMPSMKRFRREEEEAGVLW

SUMO-activating enzyme = SUMO-activating enzyme (Homo sapiens, UniProt Q9UBT2); experiment: SUMOylation inhibitor hit validation, confirmation, SUMOylation inhibitor project, biochemical, AlphaScreen (AID 2018); type: functional
SUMO-activating enzyme, sequence (Q9UBE0 whole entry): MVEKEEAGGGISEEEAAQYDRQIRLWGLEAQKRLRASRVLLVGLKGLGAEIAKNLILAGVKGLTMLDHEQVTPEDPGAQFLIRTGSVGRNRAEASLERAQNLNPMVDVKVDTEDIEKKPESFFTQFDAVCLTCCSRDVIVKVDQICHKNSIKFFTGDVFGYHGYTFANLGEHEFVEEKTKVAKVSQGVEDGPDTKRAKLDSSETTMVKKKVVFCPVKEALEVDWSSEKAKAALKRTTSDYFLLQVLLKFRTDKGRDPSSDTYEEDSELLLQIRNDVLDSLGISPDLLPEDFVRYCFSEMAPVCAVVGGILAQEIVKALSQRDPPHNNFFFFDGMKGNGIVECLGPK
SUMO-activating enzyme, sequence (Q9UBT2 whole entry): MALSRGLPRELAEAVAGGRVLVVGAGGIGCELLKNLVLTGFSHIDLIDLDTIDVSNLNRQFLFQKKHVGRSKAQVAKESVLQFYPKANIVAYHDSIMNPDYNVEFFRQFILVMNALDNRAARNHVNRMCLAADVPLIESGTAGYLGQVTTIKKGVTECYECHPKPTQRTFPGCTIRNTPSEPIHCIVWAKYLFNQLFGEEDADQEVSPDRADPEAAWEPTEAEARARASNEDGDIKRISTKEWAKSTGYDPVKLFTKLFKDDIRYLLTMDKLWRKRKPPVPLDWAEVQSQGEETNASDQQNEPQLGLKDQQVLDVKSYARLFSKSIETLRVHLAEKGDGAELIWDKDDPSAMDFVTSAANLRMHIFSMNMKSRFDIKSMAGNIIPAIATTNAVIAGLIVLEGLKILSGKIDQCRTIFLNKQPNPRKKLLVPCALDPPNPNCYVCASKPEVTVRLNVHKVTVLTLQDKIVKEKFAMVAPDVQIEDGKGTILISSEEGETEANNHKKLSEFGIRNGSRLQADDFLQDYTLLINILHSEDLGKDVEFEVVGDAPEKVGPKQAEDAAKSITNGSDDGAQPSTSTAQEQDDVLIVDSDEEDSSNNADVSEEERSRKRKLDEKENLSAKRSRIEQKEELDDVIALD

[6] = system: Streptococcus sp. 'group A'; experiment: growth inhibition of control SK(-) GAS strain, dose response, counter-screen for streptokinase expression inhibitor project, luminescence, kanamycin, BacTiterGlo, confirmation (AID 1900); type: functional, organism-based; conditions: Streptococcus sp. 'group A'
[7] = inhibitors of intracellular T. cruzi replication, confirmation, NIH3T3 host cells, beta-gal luminescence (AID 2044); type: functional, cell-based;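 further: intracellular parasites grown in NIH/3T3 mouse fibroblasts as host cells; luminescent beta-galactosidase reporter signal from transgenic T. cruzi replicating inside host cells; inhibitors lower the luminescence signal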
[8] = Luminescence Cell-Based Dose Response HTS to Identify Activators of Luciferase Translation or Activity in H4 […] Cells. [Related pubchem assays: 1829 (Project Summary), 1814 (Primary HTS)]; type: functional
[9] = Luminescence Cell Based Dose Confirmation HTS to Identify Activators of 5'UTR Stem-Loop Driven Alpha-Synuclein mRNA Translation in H4 Neuroglioblastoma Cells. [Related pubchem assays (depositor defined):AID1813, AID1829]; type: functional; conditions: Homo sapiens
H4 = experiment: Luminescence Cell-Based Dose Response HTS to Identify Activators of 5'UTR Stem-Loop Driven Prion Protein mRNA Translation in H4 Neuroglioblastoma Cells. [Related pubchem assays: 1829 (Project Summary), 1814 (Primary HTS)]; type: functional; conditions: Homo sapiens
[10] = A cytotoxicity screen of small molecule inhibitors of the PhoP region in Salmonella typhi identified in the primary screen. [Related pubchem assays: 1850, 1864, 1985 ]; type: functional
[11] = target: T4, Mannose-6-phosphate isomerase (Homo sapiens, UniProt P34949); experiment: inhibitors of human PMI, primary screen, biochemical, fluorescence intensity, coupled assay (AID 1209)
T4 sequence (P34949 whole entry): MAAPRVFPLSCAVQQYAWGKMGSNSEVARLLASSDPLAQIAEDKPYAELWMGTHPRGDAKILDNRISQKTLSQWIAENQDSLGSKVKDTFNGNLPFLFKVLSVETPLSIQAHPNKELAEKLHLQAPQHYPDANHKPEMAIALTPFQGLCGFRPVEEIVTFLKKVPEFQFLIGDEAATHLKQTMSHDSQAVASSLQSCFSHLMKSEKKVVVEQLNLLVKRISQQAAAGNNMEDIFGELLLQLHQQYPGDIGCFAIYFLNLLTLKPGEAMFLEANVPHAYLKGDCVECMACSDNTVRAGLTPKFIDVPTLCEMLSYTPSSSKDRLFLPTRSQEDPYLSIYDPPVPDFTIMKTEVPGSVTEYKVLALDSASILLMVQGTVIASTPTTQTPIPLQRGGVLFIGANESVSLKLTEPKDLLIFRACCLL

For `COc1cc(C(=O)c2nccc3cc(OC)c(OC)cc23)c([N+](=O)[O-])cc1OC`, the IC50 [1] was 24.6 µM (active), the IC50 [2] was > 128 µM (inactive) and the IC50 (Caspase-3) was > 99 µM (inactive).

For `N#Cc1c(O)nc(SCC(=O)N2c3ccccc3Sc3ccccc32)nc1-c1ccccc1`, the IC50 [3] was 21 µM (inactive), the IC50 [4] was 23.1 µM (inactive) and the IC50 [5] was 19.8 µM (active). The IC50 (Genome polyprotein) was 38.9 µM (active), the IC50 (SUMO-activating enzyme) was 5.15 µM (active) and the EC50 [6] was 5.6 µM (active).

With `c1ccc2c(Nc3nnc(-c4ccncc4)s3)cccc2c1` the EC50 [7] was 1.59 µM (active), the EC50 [8] was > 120 µM (not active) and the EC50 [9] was 2.02 µM (active). The EC50 (H4) was 13.8 µM (active) and the EC50 [10] was > 50 µM (active).

With `N=C1S/C(=C\c2ccc(-c3ccccc3C(=O)O)o2)C(=O)N1c1ccc2c(c1)OCO2` the IC50 [11] was 11.1 µM (active).
